Key:
Design in all cases: species or system AML cell lines (8); Primary HTS, single concentration about 10 uM, Cell Titer Glo viability; log10 luminescence, per cent inhibition relative to cycloheximide control
Settings in all cases: 72 h, relative to cycloheximide control, log10 luminescence; inhibitor
ML-2 = test system: ML-2
CMK = test system: CMK
MOLM-13 = test system: MOLM-13
U937 = test system: U937
MV4-11 = test system: MV4-11
M07e = test system: M07e
CHRF288-11 = test system: CHRF288-11
CMS = test system: CMS

Compound	ML-2 %inh (ML-2)	CMK %inh (CMK)	MOLM-13 %inh (MOLM-13)	U937 %inh (U937)	MV4-11 %inh (MV4-11)	M07e %inh (M07e)	CHRF288-11 %inh (CHRF288-11)	CMS %inh (CMS)
Cn1cc(C2=C(c3c4n(c5ccccc35)CCCC4)C(=O)NC2=O)c2ccccc21 [SJ000580963-1]	20.63%	59.12%	2.901%	27.07%	8.237%	29.09%	3.717%	9.345%
Cn1c(=O)c(Oc2ccc(F)cc2F)cc2cnc(NCCS(C)(=O)=O)nc21 [SJ000580964-1]	-0.4027%	2.942%	0.541%	5.046%	3.561%	-0.966%	-0.5727%	-1.101%
Cn1cc(C2=C(c3cccc(Br)c3)C(=O)NC2=O)c2ccccc21 [SJ000580965-1]	-0.4526%	8.568%	4.067%	10.11%	8.448%	3.983%	0.5807%	0.1878%
Cc1c(C2=C(c3cn(C)c4ccccc34)C(=O)NC2=O)c2ccccc2n1C [SJ000580966-1]	15.84%	42.24%	2.992%	14.47%	-0.1129%	4.858%	4.622%	-2.63%
Cn1cc(C2=C(c3cn(C)c4ccc(N)cc34)C(=O)NC2=O)c2ccccc21 [SJ000580967-1]	0.6002%	43.44%	8.368%	7.089%	0.6883%	2.999%	11.3%	2.341%
C[C@H](O)CNc1cc(-c2[nH]c3cccnc3c2-c2ccc(F)cc2)ccn1 [SJ000580968-1]	-2.119%	8.696%	2.412%	2.723%	1.217%	-0.9304%	-0.7944%	-1.462%
O=C1NC(=NCCc2ccc(Cl)cc2)S/C1=C\c1ccc2ncccc2c1 [SJ000580969-1]	-0.5014%	0.9453%	1.832%	-0.9947%	1.31%	-1.208%	2.273%	0.8596%
Cn1cc(C2=C(c3cn(C)c4cc(C(=O)O)ccc34)C(=O)NC2=O)c2ccccc21 [SJ000580970-1]	-3.521%	35.03%	4.437%	-0.7361%	2.908%	-3.399%	12.22%	-3.422%
Cn1c(=O)c(Oc2ccc(F)cc2F)cc2cnc(NC(C)(C)CO)nc21 [SJ000580971-1]	-1.151%	4.061%	3.693%	1.382%	3.201%	0.06396%	4.115%	-1.762%
Cn1c(=O)c(Oc2ccc(F)cc2)cc2cnc(NC3CCOCC3)nc21 [SJ000580972-1]	-0.6256%	4.681%	-0.3408%	2.684%	-1.036%	1.712%	0.05441%	3.35%
Nc1c(C(=O)c2cccc(C#CCN3CCOCC3)c2)cnn1-c1ccc(F)cc1 [SJ000580973-1]	0.4746%	37.5%	2.598%	6.28%	1.084%	5.913%	3.718%	0.1973%
O=C1NC(=NCCc2ccc(Br)cc2)S/C1=C\c1ccc2ncccc2c1 [SJ000580974-1]	-0.9884%	0.3303%	0.9588%	-2.102%	2.317%	-0.6831%	-1.536%	-2.579%
CS(=O)(=O)N1CCC(n2c(=O)c(Oc3ccc(F)cc3F)cc3cnc(NC4CCOCC4)nc32)CC1 [SJ000580975-1]	-0.9846%	5.472%	0.4331%	0.9443%	2.449%	0.9741%	-0.8918%	-1.205%
COc1ccc(C2=C(c3cn(C)c4ccccc34)C(=O)NC2=O)cc1 [SJ000580976-1]	-0.4189%	12.52%	0.836%	2.922%	1.945%	2.491%	0.9018%	-2.297%
Cn1cc(C2=C(c3cn(-c4ccccc4)c4ccccc34)C(=O)NC2=O)c2ccccc21 [SJ000580977-1]	-1.344%	6.892%	2.403%	0.1058%	3.843%	-0.4981%	2.78%	0.9336%
Cn1cc(C2=C(c3cn(C)c4ccccc34)C(=O)NC2=O)c2ccccc21 [SJ000580978-1]	13.32%	24.68%	3.271%	66.13%	62.31%	52.37%	-0.8174%	40.67%
Cn1cc(C2=C(c3ccccc3C(F)(F)F)C(=O)NC2=O)c2ccccc21 [SJ000580979-1]	0.8133%	21.16%	4.778%	1.904%	10.38%	-0.07648%	19.74%	5.043%
CCCn1cc(C2=C(c3cn(C)c4ccccc34)C(=O)NC2=O)c2ccccc21 [SJ000580980-1]	30.17%	44.58%	64.41%	35.21%	13.35%	35.81%	31.26%	13.73%
Cn1cc(C2=C(c3cccc(Cl)c3)C(=O)NC2=O)c2ccccc21 [SJ000580981-1]	-1.322%	-0.373%	-1.961%	1.717%	-5.929%	1.057%	3.619%	-3.182%
O=C1NC(=NCCc2ccccc2F)S/C1=C\c1ccc2ncccc2c1 [SJ000580983-1]	8.671%	41.89%	4.839%	4.047%	-0.6215%	0.4729%	13.58%	2.155%
COc1ccc(O)c(C(=O)c2ccc(C(=O)N[C@@H]3CCCNC[C@H]3NC(=O)c3ccncc3)cc2)c1F [SJ000580985-1]	46.48%	12.77%	32.45%	23.19%	52.11%	4.451%	19.87%	1.516%
Cn1cc(C2=C(Nc3ccccc3)C(=O)NC2=O)c2ccccc21 [SJ000580986-1]	0.1627%	-3.795%	1.455%	-0.4269%	-0.9881%	-1.248%	-2.441%	2.457%
N#Cc1ccc(C(=O)c2cnn(-c3ccc(F)cc3)c2N)cc1 [SJ000580987-1]	-0.9573%	-2.255%	-1.146%	0.0125%	-4.232%	-1.432%	-3.381%	0.4553%
Cn1c(=O)c(Oc2cccc(F)c2)cc2cnc(NC3CCOCC3)nc21 [SJ000580988-1]	-0.3057%	1.711%	93.55%	1.883%	0.1701%	0.7165%	0.6759%	1.491%

From PMC6522510 (Nature Communications, 2019)
